The results in this text go back to patent publication US20220387397A1, “COMPOUNDS AND COMPOSITIONS FOR TREATING CONDITIONS ASSOCIATED WITH NLRP ACTIVITY” (Novartis AG, priority 2018, published 2022).

A value given as a limit tells only on which side of the number the result lay.

One experiment has as its system IL-1β production in PMA-differentiated THP-1 cells. Description: IL-1β production in PMA-differentiated THP-1 cells stimulated with gramicidin (hTHP-1 assay, 2% bovine serum). The experiment is classed as cell-based, human. The settings on record: Homo sapiens, THP-1; hTHP-1 assay containing 2% bovine serum; Table 13, by Example #. The protocol:
The following protocols are suitable for testing the activity of the compounds dislcosed herein. Bioassay 1:
IL-1β Production in PMA-Differentiated THP-1 Cells Stimulated with Gramicidin.
Cell culture-THP-1 cells were purchased from the American Type Culture Collection and sub-cultured according to instructions from the supplier. Prior to experiments, cells were cultured in RPMI 1640 containing 10% heat inactivated FBS, penicillin (100 units/ml) and streptomycin ([…]), and maintained in log phase prior to experimental setup. Prior to the experiment THP-1 were treated with PMA (Phorbol 12-myristate 13-acetate) ([…]) for 24 hours. The day of the experiment the media was removed and attaching cells were treated with trypsin for 2 minutes, cells were then collected, washed with PBS (phosphate buffer saline), spin down, resuspended in 2% heat inactivated FBS with RPMI at a concentration of 1×10^6 cells/ml, and 100 ul was plated in a 96 well plate. Cells were incubated with compounds for 1 hours and then stimulated with Gramicidin (5 μM) (Enzo) for 2 hours. Cell free supernatant was collected and the production of […] was evaluated by ELISA. Compounds were dissolved in dimethyl sulfoxide (DMSO) and added to the culture medium to achieve desired concentration (e.g. 100, 30, 10, 3, 1, 0.3 or 0.1 μM). A vehicle only control was run concurrently with each experiment. Final DMSO concentration was 1%.
THP-1 cells were purchased from the American Type Culture Collection and sub-cultured according to instructions from the supplier. Prior to experiments, cells were cultured in complete RPMI 1640 (containing 10% heat inactivated FBS, penicillin (100 units/ml) and streptomycin ([…])), and maintained in log phase prior to experimental setup. Prior to the experiment THP-1 were treated with PMA (Phorbol 12-myristate 13-acetate) (20 ng/ml) for 16-18 hours. On the day of the experiment the media was removed and adherent cells were detached with trypsin for 5 minutes. Cells were then harvested, washed with complete RPMI 1640, spun down, resuspended in RPMI 1640 (containing 2% heat inactivated FBS, penicillin (100 units/ml) and streptomycin ([…]). The cells were plated in a 384-well plate at a density of 50,000 cells/well (final assay volume […]). Compounds were dissolved in dimethyl sulfoxide (DMSO) and added to the culture medium to achieve desired concentration (e.g. 100, 33, 11, 3.7, 1.2, 0.41, 0.14, 0.046, 0.015, 0.0051, […]). Cells were incubated with compounds for 1 hour and then stimulated with gramicidin (5 μM) (Enzo) for 2 hours. Cell free supernatant was collected and the production of IL-1 was evaluated by HTRF (cisbio). A vehicle only control was run concurrently with each experiment. Final DMSO concentration was 0.38%.
Compounds tested with protocols 1 and 2 provided IC50 values that are within the variability of the assay.
Tables 13 and 14 show the biological activity of compounds in hTHP-1 assay containing 2% bovine serum: <1 μM=“++++”; ≥1 and <5 μM=“+++”; ≥5 and <15 μM=“++”; ≥15 and <60 μM=“+”.
`CC(C)(O)c1csc(S(=O)(=O)NC(=O)Cc2c3c(cc4c2CCC4)CCC3)c1` [Example 7, 2-(1,2,3,5,6,7-hexahydros-indacen-4-yl)-N-(4-(2-hydroxypropan-2-yl)thiophen-2-ylsulfonyl)acetamide] registered an IC50 of 5 to 15 µM.
As to `CCc1cc(C(C)C)c(CC(=O)NS(=O)(=O)c2ccc(CN(C)C)cc2)c(C(C)C)c1` [Example 97, N-((4-((dimethylamino)methyl)phenyl)sulfonyl)-2-(4-ethyl-2,6-diisopropylphenyl)acetamide], the IC50 lay within 5 to 15 µM.

Staying with this experiment, now noted: Homo sapiens, THP-1; hTHP-1 assay containing 2% bovine serum; Table 14, by Final Target Number.
With `CC(C)c1cc(C#N)c(F)c(C(C)C)c1CC(=O)NS(=O)(=O)c1cnc(C(C)(O)CO)s1` (centres unmarked) [Compound 401], the IC50 fell in the range of 1 to 5 µM.
Still for that read-out and setting: then `CNC(=O)c1ccc(S(=O)(=O)NC(=O)Cc2c(C(C)C)cc(C#N)c(F)c2C(C)C)cc1O` [Compound 402], with 15 to 60 µM; and `CNS(=O)(=O)c1ccc(S(=O)(=O)NC(=O)Cc2c(C(C)C)cc(C#N)c(F)c2C(C)C)c(Cl)c1` [Compound 404], with less than 1 µM; and `CC(C)c1cc(C#N)c(F)c(C(C)C)c1CC(=O)NS(=O)(=O)c1cnc(C(C)(O)CO[C@@H]2O[C@H](CO)[C@@H](O)[C@H](O)[C@H]2O)s1` (some centres unmarked) [Compound 405], with 5 to 15 µM.
On the same count and under the same terms, then `CC(C)c1cc(C#N)c(F)c(C(C)C)c1CC(=O)NS(=O)(=O)c1cnc(C(C)(C)O)nc1` [Compound 406], with 5 to 15 µM; and `CC(C)c1cc(C#N)c(F)c(C(C)C)c1CC(=O)NS(=O)(=O)c1cccc(-n2cc(CNC(=O)OC(C)(C)C)nn2)c1` [Compound 407], with 15 to 60 µM.
On the same count and under the same terms, then `CC(C)c1cc(C#N)cc(C(C)C)c1CC(=O)NS(=O)(=O)c1cnc(C(C)(C)O)nc1` [Compound 409], with 5 to 15 µM; and `CC(C)c1cc(C#N)c(F)c(C(C)C)c1CC(=O)NS(=O)(=O)c1cc(C(C)(C)O)no1` [Compound 416], with less than 1 µM.

Staying with this experiment, now noted: Homo sapiens, THP-1; hTHP-1 assay containing 2% bovine serum; Table 14, given as a numeric bound.
For the molecule `CC(C)c1cc(C#N)c(F)c(C(C)C)c1CC(=O)NS(=O)(=O)c1cccc(NC(=O)CCc2cn(CCNC(=O)OC(C)(C)C)nn2)c1` [Compound 408], the IC50 was more than 30 µM.
Same read-out and setting: then `CC(C)c1cc(F)cc(C(C)C)c1CC(=O)NS(=O)(=O)c1ccc([C@@H](C)N(C)C(=O)CCc2cn(CCOCCOCCOCCNC(=O)CCCC[C@@H]3SC[C@@H]4NC(=O)N[C@@H]43)nn2)cc1` [Compound 410], with more than 30 µM; and `CC(C)c1cc(F)cc(C(C)C)c1CC(=O)NS(=O)(=O)c1ccc([C@H](C)N(C)C(=O)CCc2cn(CCOCCOCCOCCNC(=O)CCCC[C@H]3SC[C@@H]4NC(=O)N[C@@H]43)nn2)cc1` [Compound 411], with more than 30 µM.
On the same count and under the same terms, then `CC(C)c1cc(C2(C(F)(F)F)N=N2)cc(C(C)C)c1CC(=O)NS(=O)(=O)c1ccc(CN(C)C(=O)CCCN(C)C(=O)CCOCCOCCOCCOCCNC(=O)CCCC[C@H]2SC[C@@H]3NC(=O)N[C@@H]32)cc1` [Compound 412], with more than 30 µM.
Same read-out and setting: next, `CC(C)c1cc(F)cc(C(C)C)c1CC(=O)NS(=O)(=O)c1ccc(C(C)N(C)C(=O)CCc2cn(CCOCCOCCOCCNC(=O)CCCC[C@@H]3SC[C@@H]4NC(=O)N[C@@H]43)nn2)cc1` (some centres unmarked) [Compound 415]: more than 30 µM.

The experiment is the same for the next values; noted with them: hTHP-1 assay containing 2% bovine serum; Table 13, by Example #.
As to `CC(=O)c1ccc(F)c(S(=O)(=O)NC(=O)Cc2c(C(C)C)cc(F)cc2C(C)C)c1` [Example 55], the half-maximal inhibitory concentration (IC50) fell in the range of 1 to 5 µM.
Same read-out and setting: then “N-(4-pentafluorophenylsulfonyl)-2-(4-fluoro-2,6-diisopropylphenyl)acetamide [Example 39]”, with 15 to 60 µM.

By IC50 is commonly meant the midpoint of a concentration-inhibition curve. The low end stands for greater potency, the high end for weaker potency.
